Data from patent US20260240879A1, “TOPICAL PALA THERAPY FOR CANCER” (priority 2023, published 2026).
“Also recorded” adds a separate entry of the source.

Key:
[1] = Toxicity markers in UVB-tumor-bearing mice under topical treatment (weight, SAA, colon length, fecal LCN2); details: 5% (w/w) 5-fluorouracil, daily topical
Method: Serum amyloid A levels were measured in plasma samples using the Mouse SAA ELISA kit (E-90SAA, Immunology Consultants Laboratory, Inc.) according to manufacturer's instructions. Lipocalin-2 (LCN2) was quantified from pre-weighed stool samples homogenized in 0.5 mL PBS using the Mouse Lipocalin-2/NGAL DuoSet ELISA (DY1857) and DuoSet Ancillary Reagent Kit 2 (DY008, R&D Systems).

[2] = system: cytokines and chemokines in treated skin; experiment: Cytokine/chemokine profile of treated skin lysates (U-PLEX); details: for expression of inflammatory cytokine/chemokine panel in treated skin (in words): daily topical 2% PALA, 5% IMQ or 5% 5-FU, 7 days, vs vehicle; for IL-17C, Mean (SEM) / IL-17A, Mean (SEM) / GM-CSF, Mean (SEM) / IL-6, Mean (SEM) / KC, Mean (SEM) / RANTES, Mean (SEM): treated skin lysate, day 7, 2% PALA, 5% IMQ, 5% 5-FU, n = 5/group; for IL-17C, Mean (SEM): vehicle 0.5 (0.03); for IL-17A, Mean (SEM): vehicle 0.6 (0.1); for GM-CSF, Mean (SEM): vehicle 0.8 (0.1); for IL-6, Mean (SEM): vehicle 25.4 (3.2); for KC, Mean (SEM): vehicle 26.3 (6.4); for RANTES, Mean (SEM): vehicle 43.7 (3.2)
Method: The topical formulations of 2% PALA/50% acetone/10% glycerol, 5% imiquimod (IMQ), 5% 5-FU (5-FU), vehicle (50% acetone/10% glycerol) control, and Aquaphor were applied (~0.05 g/mouse) daily to the dorsal skin of SKH1-Elite female mice (8 weeks of age; n=5/group) for 7 days. […] Mice were monitored daily for weight change, skin appearance, and signs of distress.
Skin protein lysates were made by homogenizing frozen tissue with a pestle and scissors in RIPA buffer (50 mM Tris, pH8, 150 mM NaCl, 0.5% sodium deoxycholate, 1% NP-40, 0.1% sodium dodecyl sulfate, lx Pierce protease inhibitor cocktail (A32965, ThermoFisher)). Cytokines and chemokines were quantified from 25 μg of lysate using a custom 10-plex U-PLEX panel (K15069L-2; Meso Scale Discovery) that included: GM-CSF, KC/CXCL1, IFNα, IFNβ, IFNγ, IL-10, IL-6, IL-12p70, IL-17A, IL-17C, IL-17F, IP-10/CXCL10, MCP-1/CCL2, RANTES/CCL5, and TNFα. The MESO SECTOR S 600 plate reader (ICOAA-0; Meso Scale Discovery) was used to collect the U-Plex data and data was analyzed using MSD Discovery Workbench 4.0 software.

[3] = Skin irritation testing, daily topical application for 7 days; details: for skin histology on day 7 / spleen weight on day 7 / skin irritation apparent: daily topical 2% PALA, 5% IMQ or 5% 5-FU; for skin irritation apparent / weight change: naive mice; for weight change: daily topical 5% IMQ or 5% 5-FU, in contrast to vehicle and 2% PALA
Method: The topical formulations of 2% PALA/50% acetone/10% glycerol, 5% imiquimod (IMQ), 5% 5-FU (5-FU), vehicle (50% acetone/10% glycerol) control, and Aquaphor were applied (~0.05 g/mouse) daily to the dorsal skin of SKH1-Elite female mice (8 weeks of age; n=5/group) for 7 days. […] Mice were monitored daily for weight change, skin appearance, and signs of distress. […] At harvest, spleen weights and colon lengths were measured.

[4] = system: UVB-induced NMSC (AK lesions and SCC tumors); experiment: UVB-induced NMSC mouse model: tumor number, area, growth phenotype and grade; details: 2% PALA or 5% IMQ, daily, 4 weeks

| IL-17C, Mean (SEM) [2] | IL-17A, Mean (SEM) [2] | GM-CSF, Mean (SEM) [2] | IL-6, Mean (SEM) [2] | KC, Mean (SEM) [2] | RANTES, Mean (SEM) [2] | SMILES | early termination of animals at the request of veterinary staff [1] | expression of inflammatory cytokine/chemokine panel in treated skin (in words) [2] | skin histology on day 7 [3] | spleen weight on day 7 [3] | skin irritation apparent [3] | weight change [3] | tumor levels of interleukin-1β [4] |
| --- | --- | --- | --- | --- | --- | --- | --- | --- | --- | --- | --- | --- | --- |
| 1.4 (0.1) | 1.2 (0.4) | 2.6 (0.2) | 268.8 (104.8) | 114.5 (16.4) | 17.7 (5.0) | O=c1[nH]cc(F)c(=O)[nH]1 [Formulation 5-FU, fluorouracil] | terminated after 2.5 weeks of treatment | increased expression of IL-6, IL-17C, KC, and GM-CSF | epithelial erosion | significant decreases in spleen weight | 5 days | significant weight loss |  |
| 1.0 (0.04) | 1.6 (0.1) | 2.5 (0.7) | 61.3 (10.0) | 28.6 (5.9) | 141.0 (36.1) | CC(C)Cn1cnc2c(N)nc3ccccc3c21 [IMQ, imiquimod] |  | upregulation of IL-17 family cytokines; also recorded: cutaneous levels of RANTES and GM-CSF were elevated | overt thickening of the epidermis | splenomegaly | 2 days | significant weight loss | elevated |
